Experimental data taken from patent US5439933A (priority 1993, dated 1995).
Values after ≈ are worked out from the molar mass of the structure shown. Like-named read-outs stand apart in the source and are kept apart here. Starred links: 1 amine or outer side, 2 acyl side, 3 side chain; linkers in the order of their positions; H or OH if unused. Positions of bridges follow the written chain, without caps; N, C: chain ends. Non-standard residues stand in square brackets, D forms with d. Residues, ends and D or L forms follow the SMILES beside them. Chains are numbered I, II in the order given. Actinocin(9to1) = Cc1c2oc3c(C)ccc(C(=O)[*:1])c3nc-2c(C(=O)[*:2])c(N)c1=O; NMeV = CN[C@H](C(=O)O)C(C)C; Sar = CNCC(=O)O

What was measured:
Candida albicans A26 = test: Antifungal agar dilution; format: cell-based
Method: (§1) The new scytophycins are also useful as antifungal agents. Antimicrobial activity was determined by the agar dilution method. Tolytoxin was dissolved in 95% ethanol for addition to cooled, molten agar. Nystatin was solubilized in DMSO and diluted in distilled water. Appropriate solvent controls were also prepared. Fungal cultures were grown on Saboraud dextrose agar. Assay plates were incubated for 48 hours post-inoculation. Yeasts and filamentous fungi were incubated at 25° C.
(§2) Activity was determined using the method described above for tolytoxin.

Sclerotium rofsii 2133 = test: Antifungal agar dilution; format: cell-based; conditions: Sclerotium rofsii 2133
Method: as §1, §2

[1] = tested on: Phytophthora nicotianae H729; test: Antifungal agar dilution; format: cell-based; conditions: Phytophthora nicotianae H729
Method: as §1, §2

Saccharomyces cerevisae = test: Antifungal agar dilution; format: cell-based; conditions: Saccharomyces cerevisae; for IC50: Table 9
Method: as §1, §2

[2] = tested on: Thielaviopsis paradoxa 1215; test: Antifungal agar dilution; format: cell-based; conditions: Thielaviopsis paradoxa 1215; for IC50: Table 9
Method: as §1, §2

Bipolaris incurvata 2118 = test: Antifungal agar dilution; format: cell-based; conditions: Table 8; Bipolaris incurvata 2118; 48 hours
Method: as §1

Penicillium notatum = test: Antifungal agar dilution; format: cell-based; conditions: Table 8; Penicillium notatum; 48 hours
Method: as §1

Rhizoctonia solani 1165 = test: Antifungal agar dilution; format: cell-based; conditions: Table 8; Rhizoctonia solani 1165; 48 hours
Method: as §1

[3] = tested on: Calonectria critalarae 1809; test: Antifungal agar dilution; format: cell-based; conditions: Table 8; Calonectria critalarae 1809; 48 hours
Method: as §1

[4] = tested on: Trichophyton mentagrophytes A23; test: Antifungal agar dilution; format: cell-based; conditions: Table 8; Trichophyton mentagrophytes A23; 48 hours
Method: as §1

[5] = tested on: Phyllosticta capitalensis 689-5; test: Antifungal agar dilution; format: cell-based; conditions: Table 8; Phyllosticta capitalensis 689-5; 48 hours
Method: as §1

[6] = tested on: Alternaria alternata 1715; test: Antifungal agar dilution; format: cell-based; conditions: Table 8; Alternaria alternata 1715; 48 hours
Method: as §1

[7] = tested on: Colletotrichum coccodes 1809; test: Antifungal agar dilution; format: cell-based; conditions: Table 8; Colletotrichum coccodes 1809; 48 hours
Method: as §1

Aspergillus oryzae = test: Antifungal agar dilution; format: cell-based; conditions: Table 8, 48 hours
Method: as §1

[8] = tested on: Human ovarian carcinoma cells (SKOV3); test: cells; format: cell-based; conditions: SK-OV-3, Table 7, SKOV3, 48 hours, read-out: IC50 SKOV3
Method: Human ovarian carcinoma cells (SKOV3) and a subline made multi-drug resistant by slowly increasing vinblastine in the culture medium over the course of many passages (SKVLB) were grown in Earle's basal medium (BME) containing 10% fetal calf serum. The SKVLB cells were maintained in the presence of 1 µg/mL vinblastine. The multi-drug resistant cell line is resistant to adriamycin, vinblastine, actinomycin D, and colchicine.
Cell proliferation was estimated by measurement of protein content of the cultured cells, as described by Skehan et al. (1990). Cells were plated into 24-well plates at approximately 10% confluency in BME and were allowed to attach and recover for at least 24 hours. The cells were then treated with the scytophycins or appropriate control for 48 hours. After the incubation, the medium was removed from each well and cells fixed by addition of 10% (w/v) trichloroacetic acid (TCA) (4° C.). The cells were incubated at 4° C. for one hour and then washed five times with water to remove TCA. The TCA-fixed cells were then stained for 30 minutes with 0.4% (w/v) sulforhodamine B prepared in 1% acetic acid. Following the staining, the cell layers were washed four times with 1% acetic acid. The cell layer was dissolved in 10 mM unbuffered tris-hydroxymethylaminomethane base. Absorbance of the solution was determined at 564 nm. Antiproliferative activity is manifested as decreased production of cellular protein.

[9] = tested on: SKVLB (multi-drug resistant subline of SKOV3); test: cells; format: cell-based, Human; conditions: for IC50: Homo sapiens, 48 hours, read-out: IC50 SKVLB; for IC50 / Fold-Resistance: Table 7; for IC50 / resistance of the multi-drug resistant cell line: SKVLB; for Fold-Resistance: SKVLB vs SKOV3, 2880 min
[10] = tested on: L1210 murine leukemia cells; test: Cell proliferation assay (cell counts), L1210; format: cell-based; conditions: Mus musculus; Table 6; L1210; read-out: IC50 L1210
Method: (§3) Tolytoxin and the other new scytophycin compounds are potent anticancer and antifungal agents. The cytotoxicity of tolytoxin and other new scytophycin compounds was determined using a cell proliferation assay, which tested the effect of the compounds on increases in cell numbers.
(§4) Cell lines were grown in plastic dishes (Falcon) in Eagle's basal medium supplemented with 5% newborn calf serum (KB), Fisher's medium supplemented with 10% horse serum (L1210), Dulbecco's modified Eagle's medium supplemented with 5% heat-inactivated fetal calf serum (LoVo), minimal essential medium supplemented with 2% heat-inactivated chicken serum (HEp-2), RPMI-1640 supplemented with 10% heat-inactivated fetal calf serum (T-47D, COLO-201) or 20% heat-inactivated fetal calf serum (HL-60, KATO-III), or McCoy's 5A supplemented with 10% heat-inactivated fetal calf serum (HBL-100). All cell culture media were supplemented with 50 μg/ml gentamycin sulfate. The cultures were incubated at 37° C. in a humidified atmosphere containing 5% carbon dioxide.
(§5) Cultures were exposed to graded concentrations of tolytoxin and reincubated for 72 hours in the presence of tolytoxin. Three dishes were used for each treatment. Cell numbers were determined by hemacytometer counts. The IC50 for each cell line was determined by plotting the logarithm of the tolytoxin concentration versus growth (cell number as a percentage of the control) of the treated cells.
(§6) The other new scytophycin compounds are also potent cytotoxins. For example, the IC50 of the scytophycins against KB human epidermoid carcinoma, LoVo human adenocarcinoma, and L1210 murine leukemia were determined using the cell proliferation assay described for tolytoxin.

[11] = tested on: LoVo human adenocarcinoma cells; test: Cell proliferation assay (cell counts), LoVo; format: cell-based; conditions: Table 6, read-out: IC50 LoVo
Method: as §3, §4, §5, §6

[12] = tested on: KB human epidermoid carcinoma cells; test: Cell proliferation assay (cell counts), KB; format: cell-based; conditions: Table 6, KB, read-out: IC50 KB
Method: as §3, §4, §5, §6

actin microfilaments = conditions: by binding to the end unit of growing actin microfilaments; cited from earlier work
cellular sugar uptake = conditions: side effect; cited from earlier work
[13] = Table 9, Candida albicans A26, read-out: IC50

Compound | IC50 [8] [nM] | IC50 [9] [nM] | resistance of the multi-drug resistant cell line [9] | Fold-Resistance [9] | MIC (Candida albicans A26; [13]) [nM] | MIC (Sclerotium rofsii 2133; Table 9, read-out: IC50) [nM] | MIC ([1]; Table 9, read-out: IC50) [nM] | IC50 (Saccharomyces cerevisae) [nM] | IC50 [2] [nM] | IC50 [10] [nM] | IC50 [11] [nM] | IC50 [12] [nM] | further results
C[C@@H]1[C@H](O)[C@@H](C)/C=C/C=C/CC/C=C/C=C/C=C/C=C/C(O[C@H]2O[C@H](C)[C@@H](O)[C@H](N)[C@@H]2O)CC2O[C@](O)(CC(O)C(O)CCC(O)CC(O)CC(O)CC(=O)O[C@H]1C)CC(O)C2C(=O)O (some centres unmarked) [Nystatin, reference compound] | – | – | – | – | – | – | – | – | – | – | – | – | MIC (Candida albicans A26; Table 8, Candids albicans A26, 48 hours): 1 nM (≈ 0.926 ng/mL); MIC (Sclerotium rofsii 2133; Table 8, 48 hours): 0.125 nM (≈ 0.116 ng/mL); MIC ([1]; Table 8, 48 hours): 1 nM (≈ 0.926 ng/mL); MIC (Saccharomyces cerevisae; Table 8, 48 hours): 1 nM (≈ 0.926 ng/mL); MIC ([2]; Table 8, 48 hours): 0.5 nM (≈ 0.463 ng/mL); MIC (Bipolaris incurvata 2118): 0.25 nM (≈ 0.232 ng/mL); MIC (Penicillium notatum): 0.125 nM (≈ 0.116 ng/mL); MIC (Rhizoctonia solani 1165): 0.0625 nM (≈ 0.0579 ng/mL); MIC [3]: 0.25 nM (≈ 0.232 ng/mL); MIC [4]: 0.5 nM (≈ 0.463 ng/mL); MIC [5]: 0.125 nM (≈ 0.116 ng/mL); MIC [6]: 0.5 nM (≈ 0.463 ng/mL); MIC [7]: 0.25 nM (≈ 0.232 ng/mL); MIC (Aspergillus oryzae): 0.5 nM (≈ 0.463 ng/mL)
COc1cccc2c1C(=O)c1c(O)c3c(c(O)c1C2=O)C[C@@](O)(C(=O)CO)C[C@@H]3O[C@H]1C[C@H](N)[C@H](O)[C@H](C)O1 [Adriamycin] | 400 | > 100000 | resistant | > 250 | – | – | – | – | – | – | – | – | –
COC1CC2CC=CC(CC(O)C/C=C(C)/C=C/C(=O)OC(C(C)C(O)C(C)CCC(=O)C(C)C(OC)C(C)/C=C/N(C)C=O)C(C)C(O)CC(OC)C1C)O2 (centres unmarked) [19-O-demethylscytophycin C] | 25 | 25 | – | 1 | 128 (≈ 101 ng/mL) | 4 (≈ 3.17 ng/mL) | 8 (≈ 6.34 ng/mL) | 64 | 16 | 12.5 | 2.9 | 9.2 | –
COC1CC2C=CCC(CC(OC)C(CO)C(OC)CC(OC)C(C)C(C(C)C(O)C(C)CCC(=O)C(C)C(OC)C(C)/C=C/N(C)C=O)OC(=O)/C=C/C(C)=C/C1O)O2 (centres unmarked) [6-Hydroxy-7-O-methylscytophycin E, 6-hydroxy-7-O-methylscytophycin E] | 100 | 300 | – | 3 | 64 (≈ 54.5 ng/mL) | 16 (≈ 13.6 ng/mL) | 16 (≈ 13.6 ng/mL) | 64 | 32 | 6.6 | 8 | 12 | –
CC[C@]1(O)C[C@@H]2CN(CCc3c([nH]c4ccccc34)[C@@](C(=O)OC)(c3cc4c(cc3OC)N(C)[C@H]3[C@@](O)(C(=O)OC)[C@H](OC(C)=O)[C@]5(CC)C=CCN6CC[C@]43[C@@H]65)C2)C1 [Vinblastine] | 1 | 10000 | resistant | 10,000 | – | – | – | – | – | – | – | – | –
C=C1C(C)C2C(Cc3ccccc3)NC(=O)C23OC(=O)C=CC(O)CCCC(C)CC=CC3C1O (centres unmarked) [Cytochalasin B] | 5000 | 30000 | – | 6 | – | – | – | – | – | – | – | – | microfilament formation (actin microfilaments): inhibit microfilament formation; cellular sugar uptake (cellular sugar uptake): inhibits cellular sugar uptake
COC1CC(OC)C2(CO2)C(OC)CC2CC=CC(CC(O)C(O)/C=C(C)/C=C/C(=O)OC(C(C)C(O)C(C)CCC(=O)C(C)C(OC)C(C)/C=C/N(C)C=O)C1C)O2 (centres unmarked) [6-Hydroxyscytophycin B] | 50 | 150 | – | 3 | 200 (≈ 167 ng/mL) | 16 (≈ 13.4 ng/mL) | 64 (≈ 53.5 ng/mL) | 100 | 32 | 11 | 8.2 | 3.6 | –
COc1cc2c(c(OC)c1OC)-c1ccc(OC)c(=O)cc1[C@@H](NC(C)=O)CC2 [colchicine] | – | – | resistant | – | – | – | – | – | – | – | – | – | –
Cc1c2oc3c(C)ccc(C(=O)N[C@@H]4C(=O)N[C@H](C(C)C)C(=O)N5CCC[C@H]5C(=O)N(C)CC(=O)N(C)[C@@H](C(C)C)C(=O)O[C@@H]4C)c3nc-2c(C(=O)N[C@@H]2C(=O)N[C@H](C(C)C)C(=O)N3CCC[C@H]3C(=O)N(C)CC(=O)N(C)[C@@H](C(C)C)C(=O)O[C@@H]2C)c(N)c1=O [actinomycin D] (I: T[dV]P[Sar][NMeV] / II: T[dV]P[Sar][NMeV]; ester I:1-I:C, II:1-II:C; linker I:N-II:N via Actinocin(9to1)) | – | – | resistant | – | – | – | – | – | – | – | – | – | –
